Measured values as given in paper PMC9101373, “Design of DNA Intercalators Based on 4-Carboranyl-1,8-Naphthalimides: Investigation of Their DNA-Binding Ability and Anticancer Activity” (International Journal of Molecular Sciences, 2022).
Each block holds one substance with its values, some of them ahead of it.

Assays:
calf thymus DNA (ct-DNA) = experiment: Melting temperature (Tm) measurements of ct-DNA, thermal denaturation; assay type: binding; details: for ΔTm ct-DNA: r = [compound]/[ct-DNA] = 0.3, pH 7.0, 20 mM cacodylate buffer, Tm of ct-DNA alone 74 °C; for effect on thermal stability of ct-DNA (in words): thermal melting experiments
Experimental: The melting temperature (Tm) of DNA is defined as the temperature at which 50% of the DNA is in form of single strands forming randomly coiled structures. DNA melting is measured by the absorbance of UV light (260 nm) by the DNA solution, where the amount of UV light absorbed is proportional to the fraction of non-bonded base pairs. The majority of DNA-binding small molecules known thus far stabilize duplex DNA against heat denaturation. A high, drug-induced increase in the Tm of DNA is generally viewed as an excellent criterion to select DNA ligands and is a common feature of several anticancer drugs such as intercalators (a significant increase in Tm = 3–8 °C is observed for strong intercalation) and alkylators. The reverse situation (destabilization of DNA to facilitate its denaturation) may be an attractive option to identify therapeutic agents acting on the DNA structure.
Our study conducted Tm measurement to estimate the impact of 1,8-naphthalimides bearing the carborane cluster on DNA stabilization (Table 1, Figures S249–S253, ESI).
The measurements were performed by adding aliquots of DMSO stock solution of the tested compounds to the buffer solution (pH 7.0, 20 mM, cacodylate buffer, DMSO content of the final solution = 0.24–0.36%). The Tm curves were collected at r = 0.3 (r = [compound]/[ct-DNA]) to assure the dominant binding mode. Thermal melting curves were determined by following the absorption change at 260 nm as a function of temperature by using a GBC Cintra10 UV–vis spectrometer (Dandenong, Australia) equipped with a GBC Thermocell Peltier Power Supply (Dandenong, Australia) using a 1 cm path length cell. The absorbance of the samples was monitored at 260 nm from 30 to 90 °C (95 °C for compounds 54–61) with a heating rate of 1 °C/min. Tm values are the midpoints or the transition curves determined from the maximum of the first derivative. The ΔTm values were calculated by subtracting the Tm of the free nucleic acid from the Tm of the sample. Every Tm value reported in this study was average at least three measurements. The error in Tm was 0.5 °C.

HepG2 cells = experiment: In vitro cytotoxic activity, MTT assay; assay type: cell-based, human; details: 24 h treatment, read-out: IC50, compound concentration required to inhibit cell growth by 50%
Experimental: The obtained 1,8-naphthalimide–carborane conjugates were investigated for their in vitro antitumor activity by examining their cytotoxic effects using the MTT tetrazolium dye assay against the human cancer cell line HepG2 established from hepatocellular carcinoma. IC50 refers to the drug concentration (µM) required to inhibit cell growth by 50%.
The cytotoxic properties of the synthesized compounds were evaluated using the human hepatocellular carcinoma cell line HepG2 established from hepatocellular carcinoma. The HepG2 cell line was purchased from ECACC (Salisbury, UK). Cells were grown in EMEM medium (Corning®) supplemented with 10% heat-inactivated fetal bovine serum (FBS) (Corning®) and antibiotics (Corning®), at 37 °C in a 5% CO2 atmosphere. Upon reaching 80–90% confluency, cells were detached with the trypsin (Corning®) and transferred into 96-well microplates at a density of 12 × 10^3. After overnight incubation at 37 °C in a humidified atmosphere containing 5% CO2, the cells were treated for the next 24 h with compounds. The stock solution of each compound was prepared in DMSO at 10 mM. The cytotoxicity was evaluated by the MTT assay. […] Subsequently, the medium was aspirated and replaced with 3-(4,5-dimethylthiazol-2-yl)-2,5-diphenyltetrazolium bromide (MTT) dye solution (50 µL, 0.5 mg/mL). After 3 h incubation, the resulting MTT formazan crystals were dissolved in DMSO (100 µL). To ensure the complete dissolution of formazan, the plates were shaken on an orbital microplate shaker at 1000 rpm for 15 min (Thermoshaker NeoLab 7–0055, Bionovo, Legnica, Poland). The optical density of each well was then measured on a VICTOR Nivo multimode plate reader at a wavelength of 570 nm. Each experiment consisted of 6 replications of each concentration, and each experiment was repeated three times independently. The results were calculated as a percentage of control group viability. The IC50 values were determined using a non-linear regression from the plot of % viability against log dose of compounds by using GraphPad Prism 6.0 software (GraphPad, San Diego, CA, USA).

human topoisomerase IIα = target: T1, human topoisomerase IIα (Homo sapiens, UniProt P11388); experiment: Human topoisomerase IIα relaxation assay; assay type: biochemical; details: for IC50: supercoiled pBR322, concentration range 0.1–100 µM, read-out: IC50, compound concentration required to inhibit the activity of this enzyme by 50%
T1 construct: purchased Inspiralis (Norwich, UK)
Experimental: Therefore, we subjected these compounds to further detailed analyses of inhibitory potential within the concentration range of 0.1–100 µM (Figure S301, ESI) to calculate IC50 values. IC50 refers to the compound concentration (µM) required to inhibit the activity of the topoisomerase enzyme by 50%.
The Human Topoisomerase II-alpha Relaxation Assay Kit was purchased from Inspiralis (Norwich, UK). The Topo IIα inhibition assay was performed as described by the manufacturer. […] Next, TopoIIα (1 U) was added, and the reaction mixture was incubated at 37 °C for an additional 45 min. The reaction was terminated by addition of the STEB buffer (40 % (w/v) sucrose, Tris-HCl (100 mM, pH 8), EDTA (1 mM), bromophenol blue (0.5 mg/mL)). The products were analyzed by electrophoresis using agarose gel (1%) in TAE buffer at 70 V for 2 h, followed by ethidium bromide staining. […] The percentage of Topo-II alpha activity inhibition was calculated by densitometric quantification (Quantity One software, Bio-Rad). The occurrence of a band representing supercoiled DNA on an agarose gel indicated the inhibition of enzyme activity.

T1 sequence (P11388 whole entry): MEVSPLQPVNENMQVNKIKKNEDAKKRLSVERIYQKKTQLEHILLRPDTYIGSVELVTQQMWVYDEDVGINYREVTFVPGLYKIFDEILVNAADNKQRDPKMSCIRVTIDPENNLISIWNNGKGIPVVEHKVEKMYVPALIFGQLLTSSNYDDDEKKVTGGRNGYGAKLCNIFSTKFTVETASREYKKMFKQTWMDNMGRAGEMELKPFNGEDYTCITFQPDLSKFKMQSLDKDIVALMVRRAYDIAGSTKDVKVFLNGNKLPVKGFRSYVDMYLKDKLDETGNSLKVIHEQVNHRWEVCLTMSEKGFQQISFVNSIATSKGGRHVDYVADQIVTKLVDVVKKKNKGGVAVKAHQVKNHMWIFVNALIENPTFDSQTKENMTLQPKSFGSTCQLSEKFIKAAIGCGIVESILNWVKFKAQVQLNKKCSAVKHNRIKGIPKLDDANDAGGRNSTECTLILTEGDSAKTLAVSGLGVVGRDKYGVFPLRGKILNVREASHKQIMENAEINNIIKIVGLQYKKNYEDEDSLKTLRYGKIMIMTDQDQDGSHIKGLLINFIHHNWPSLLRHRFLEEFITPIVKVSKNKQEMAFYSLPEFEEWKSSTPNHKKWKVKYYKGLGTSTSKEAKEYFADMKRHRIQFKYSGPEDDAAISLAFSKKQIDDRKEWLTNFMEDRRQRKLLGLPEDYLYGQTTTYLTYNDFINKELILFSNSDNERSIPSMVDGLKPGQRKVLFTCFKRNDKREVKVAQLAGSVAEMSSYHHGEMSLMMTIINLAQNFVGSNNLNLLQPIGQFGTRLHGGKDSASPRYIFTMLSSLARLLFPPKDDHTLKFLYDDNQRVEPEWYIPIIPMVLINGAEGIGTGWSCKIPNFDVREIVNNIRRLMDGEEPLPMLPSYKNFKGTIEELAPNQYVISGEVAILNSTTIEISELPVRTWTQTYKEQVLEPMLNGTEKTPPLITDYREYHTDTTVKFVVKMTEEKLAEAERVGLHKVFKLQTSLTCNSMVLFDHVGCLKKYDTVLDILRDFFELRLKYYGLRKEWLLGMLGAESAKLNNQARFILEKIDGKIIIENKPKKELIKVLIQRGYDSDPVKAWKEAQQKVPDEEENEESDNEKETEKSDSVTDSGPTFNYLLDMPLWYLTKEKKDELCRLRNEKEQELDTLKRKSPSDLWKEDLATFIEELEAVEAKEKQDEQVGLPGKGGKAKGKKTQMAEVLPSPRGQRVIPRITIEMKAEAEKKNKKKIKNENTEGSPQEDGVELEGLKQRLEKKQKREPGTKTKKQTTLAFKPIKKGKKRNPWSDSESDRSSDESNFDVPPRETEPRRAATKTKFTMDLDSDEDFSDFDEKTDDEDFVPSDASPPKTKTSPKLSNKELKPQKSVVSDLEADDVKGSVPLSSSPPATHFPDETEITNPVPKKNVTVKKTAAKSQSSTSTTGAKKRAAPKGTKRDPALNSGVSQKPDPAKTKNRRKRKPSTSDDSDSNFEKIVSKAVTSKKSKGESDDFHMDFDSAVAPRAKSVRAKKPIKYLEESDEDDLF

Substance: N-[2-(Dimethylamino)ethyl]-4-{1-[3-(1,7-dicarba-closo-dodecaborane-1-yl)propyl]-1H-1,2,3-triazol-4-yl}-1,8-naphthalimide [Compound 10]
ΔTm ct-DNA (calf thymus DNA (ct-DNA)): 0.67 °C | IC50 (HepG2 cells): 5.35 ± 1.9 µM

Substance: N-[2-(Dimethylamino)ethyl]-4-{1-[3-(1,2-dicarba-closo-dodecaborane-1-yl)propyl]-1H-1,2,3-triazol-4-yl}methoxy-1,8-naphthalimide [Compound 16]
ΔTm ct-DNA (calf thymus DNA (ct-DNA)): 2.00 °C | effect on thermal stability of ct-DNA (in words) (calf thymus DNA (ct-DNA)): better DNA stabilization | IC50 (HepG2 cells): 8.17 ± 3.72 µM

IC50 (human topoisomerase IIα): 7.72 µM
Substance: N-[2-(Dimethylamino)ethyl]-4-[(2-(3-(1,2-dicarba-closo-dodecaborane-1-yl)propanamido)ethyl)amino]-1,8-naphthalimide [Compound 36]
ΔTm ct-DNA (calf thymus DNA (ct-DNA)): 1.33 °C | effect on thermal stability of ct-DNA (in words) (calf thymus DNA (ct-DNA)): better DNA stabilization | IC50 (HepG2 cells): 6.03 ± 0.91 µM

fold less active than compound 8 (Topo IIα IC50) (human topoisomerase IIα): ~5 fold | IC50 (human topoisomerase IIα): 2.81 µM
Substance: N-[2-(N-Pyrrolidinyl)ethyl]-4-[(2-(3-(1,2-dicarba-closo-dodecaborane-1-yl)propanamido)ethyl)amino]-1,8-naphthalimide [Compound 38]
ΔTm ct-DNA (calf thymus DNA (ct-DNA)): 1.00 °C | IC50 (HepG2 cells): 10.1 ± 1.85 µM

Substance: N-[2-(Dimethylamino)ethyl]-4-[(6-(3-(1,2-dicarba-closo-dodecaborane-1-yl)propanamido)hexyl)amino]-1,8-naphthalimide [Compound 40]
ΔTm ct-DNA (calf thymus DNA (ct-DNA)): 0.67 °C | IC50 (HepG2 cells): 12.2 ± 0.44 µM

Substance: N-[2-(Dimethylamino)ethyl]-4-[3-(1,2-dicarba-closo-dodecaborane-1-yl)propoxy]-1,8-naphthalimide [Compound 24]
ΔTm ct-DNA (calf thymus DNA (ct-DNA)): 1.33 °C | effect on thermal stability of ct-DNA (in words) (calf thymus DNA (ct-DNA)): better DNA stabilization | IC50 (HepG2 cells): 11 ± 0.66 µM

IC50 (human topoisomerase IIα): 0.58 µM
Substance: N-[2-(Dimethylamino)ethyl]-4-{1-[3-(1,2-dicarba-closo-dodecaborane-1-yl)propyl]-1H-1,2,3-triazol-4-yl}-1,8-naphthalimide [Compound 8]
ΔTm ct-DNA (calf thymus DNA (ct-DNA)): 0.33 °C | IC50 (HepG2 cells): 9.65 ± 1.02 µM

Substance: N-[2-(N-Pyrrolidinyl)ethyl]-4-[(6-(3-(1,2-dicarba-closo-dodecaborane-1-yl)propanamido)hexyl)amino]-1,8-naphthalimide [Compound 42]
ΔTm ct-DNA (calf thymus DNA (ct-DNA)): 0.67 °C | IC50 (HepG2 cells): 21.1 ± 3.34 µM

Substance: N-[2-(N-Pyrrolidinyl)ethyl]-4-[(2-(3-(1,7-dicarba-closo-dodecaborane-1-yl)propanamido)ethyl)amino]-1,8-naphthalimide [Compound 39]
ΔTm ct-DNA (calf thymus DNA (ct-DNA)): 1.00 °C | IC50 (HepG2 cells): 9.85 ± 0.59 µM

Substance: N-[2-(N-Pyrrolidinyl)ethyl]-4-[3-(1,2-dicarba-closo-dodecaborane-1-yl)propoxy]-1,8-naphthalimide [Compound 25]
ΔTm ct-DNA (calf thymus DNA (ct-DNA)): 0.33 °C | IC50 (HepG2 cells): 15.2 ± 2.02 µM

Substance: N-[2-(Dimethylamino)ethyl]-4-[3-(1,7-dicarba-closo-dodecaborane-1-yl)propoxy]-1,8-naphthalimide [Compound 26]
ΔTm ct-DNA (calf thymus DNA (ct-DNA)): 1.33 °C | effect on thermal stability of ct-DNA (in words) (calf thymus DNA (ct-DNA)): better DNA stabilization | IC50 (HepG2 cells): 4.89 ± 2.59 µM

Substance: N-[2-(Dimethylamino)ethyl]-4-{1-[3-(1,7-dicarba-closo-dodecaborane-1-yl)propyl]-1H-1,2,3-triazol-4-yl}methoxy-1,8-naphthalimide [Compound 18]
ΔTm ct-DNA (calf thymus DNA (ct-DNA)): 0.37 °C | IC50 (HepG2 cells): 5.8 ± 0.23 µM

Substance: 4-[3-(1,2-Dicarba-closo-dodecaborane-1-yl)propoxy]-1,8-naphthalic anhydride [Compound 22]
ΔTm ct-DNA (calf thymus DNA (ct-DNA)): −1.00 °C | effect on thermal stability of ct-DNA (in words) (calf thymus DNA (ct-DNA)): destabilization | IC50 (HepG2 cells): 28.7 ± 3.84 µM

Substance: N-[2-(Dimethylamino)ethyl]-4-[(6-(3-(1,7-dicarba-closo-dodecaborane-1-yl)propanamido)hexyl)amino]-1,8-naphthalimide [Compound 41]
ΔTm ct-DNA (calf thymus DNA (ct-DNA)): −1.33 °C | effect on thermal stability of ct-DNA (in words) (calf thymus DNA (ct-DNA)): destabilization | IC50 (HepG2 cells): 11.9 ± 0.92 µM

IC50 (human topoisomerase IIα): 8.78 µM
Substance: 4-{1-[3-(1,7-Dicarba-closo-dodecaborane-1-yl)propyl]-1H-1,2,3-triazol-4-yl}-1,8-naphthalic anhydride [Compound 7]
ΔTm ct-DNA (calf thymus DNA (ct-DNA)): 0.00 °C | IC50 (HepG2 cells): 136 ± 4.24 µM

Substance: 4-[3-(1,7-Dicarba-closo-dodecaborane-1-yl)propoxy]-1,8-naphthalic anhydride [Compound 23]
ΔTm ct-DNA (calf thymus DNA (ct-DNA)): −0.33 °C | effect on thermal stability of ct-DNA (in words) (calf thymus DNA (ct-DNA)): destabilization | IC50 (HepG2 cells): 109 ± 3.78 µM

IC50 (human topoisomerase IIα): 7.73 µM
Substance: 4-{1-[3-(1,2-Dicarba-closo-dodecaborane-1-yl)propyl]-1H-1,2,3-triazol-4-yl}-1,8-naphthalic anhydride [Compound 6]
ΔTm ct-DNA (calf thymus DNA (ct-DNA)): −0.33 °C | effect on thermal stability of ct-DNA (in words) (calf thymus DNA (ct-DNA)): destabilization | IC50 (HepG2 cells): 71.2 ± 1.78 µM

Substance: N-[2-(N-Pyrrolidinyl)ethyl]-4-{1-[3-(1,2-dicarba-closo-dodecaborane-1-yl)propyl]-1H-1,2,3-triazol-4-yl}-1,8-naphthalimide [Compound 9]
ΔTm ct-DNA (calf thymus DNA (ct-DNA)): 0.67 °C | IC50 (HepG2 cells): 29.6 ± 1.89 µM

IC50 (human topoisomerase IIα): 7.49 µM
Substance: N-[2-(Dimethylamino)ethyl]-4-[(2-(3-(1,7-dicarba-closo-dodecaborane-1-yl)propanamido)ethyl)amino]-1,8-naphthalimide [Compound 37]
ΔTm ct-DNA (calf thymus DNA (ct-DNA)): 2.00 °C | effect on thermal stability of ct-DNA (in words) (calf thymus DNA (ct-DNA)): better DNA stabilization | IC50 (HepG2 cells): 10.5 ± 0.53 µM

Substance: N-[2-(N-Pyrrolidinyl)ethyl]-4-[3-(1,7-dicarba-closo-dodecaborane-1-yl)propoxy]-1,8-naphthalimide [Compound 27]
ΔTm ct-DNA (calf thymus DNA (ct-DNA)): 0.33 °C | IC50 (HepG2 cells): 4.07 ± 1.19 µM

Substance: 4-{1-[3-(1,2-Dicarba-closo-dodecaborane-1-yl)propyl]-1H-1,2,3-triazol-4-yl}methoxy-1,8-naphthalic anhydride [Compound 14]
ΔTm ct-DNA (calf thymus DNA (ct-DNA)): 0.33 °C | IC50 (HepG2 cells): 34.1 ± 2.33 µM

Substance: N-[2-(N-Pyrrolidinyl)ethyl]-4-[(6-(3-(1,2-dicarba-closo-dodecaborane-1-yl)propanamido)hexyl)amino]-1,8-naphthalimide [Compound 43]
ΔTm ct-DNA (calf thymus DNA (ct-DNA)): 1.00 °C | IC50 (HepG2 cells): 40 ± 3.89 µM

fold less active than mitonafide (Topo IIα IC50) (human topoisomerase IIα): 12 fold | IC50 (human topoisomerase IIα): 61.6 µM
Substance: 4-{1-[3-(1,7-Dicarba-closo-dodecaborane-1-yl)propyl]-1H-1,2,3-triazol-4-yl}methoxy-1,8-naphthalic anhydride [Compound 15]
ΔTm ct-DNA (calf thymus DNA (ct-DNA)): 0.00 °C | IC50 (HepG2 cells): 38.1 ± 2.85 µM
